Data set [1] relates to Recombinant Respiratory Syncytial virus strain A2 containing the firefly luciferase reporter (RSV-Fluc). Description: microbe, parasite or virus in culture. The following applies: human respiratory syncytial virus, NHBE, read-out: RSV EC50, Table 4. It is filed as cell-based.
Data set [2] deals with SARS-CoV-2. Description: microbe, parasite or virus in culture. In kind it is cell-based. The note with it: Severe acute respiratory syndrome coronavirus 2, read-out: SARS EC50.
A short description of data set [3]: MT4 cytotoxicity (CC50). The following applies: human, MT4 cells, MT4 CC50, Table 4.

For orientation: EC50 means the concentration that produces a half-maximal response. Broadly, the CC50 is the concentration at which the toxic effect on the cells reaches its halfway point. Read a low CC50 as greater toxicity to the cells. As to `CCCCCCCCCCCCCCCCCCOC[C@H](COP(=O)(O)OC[C@H]1O[C@@](C#N)(c2ccc3c(N)ncnn23)[C@H](O)[C@@H]1O)Oc1cnc(C#N)cn1` [Example 77, ((2R,3S,4R,5R)-5-(4-aminopyrrolo[2,1-f][1,2,4]triazin-7-yl)-5-cyano-3,4-dihydroxytetrahydrofuran-2-yl)methyl ((R)-2-((5-cyanopyrazin-2-yl)oxy)-3-(octadecyloxy)propyl) hydrogen phosphate], the EC50 is 0.007 µM in data set [1] and 0.031 µM in data set [2]. It took 0.196 µM to reach half-maximal cytotoxicity in data set [3] (CC50).

`CCCCCCCCCCCCCCCCCCOC[C@H](COP(=O)(O)OC[C@H]1O[C@@](C#N)(c2ccc3c(N)ncnn23)[C@H](O)[C@@H]1O)Oc1ccc(C#N)nc1` [Example 78, ((2R,3S,4R,5R)-5-(4-aminopyrrolo[2,1-f][1,2,4]triazin-7-yl)-5-cyano-3,4-dihydroxytetrahydrofuran-2-yl)methyl ((R)-2-((6-cyanopyridin-3-yl)oxy)-3-(octadecyloxy)propyl) hydrogen phosphate]: the results for the EC50 in data set [1] and in data set [2] were 0.007 µM and 0.033 µM, respectively. In addition, the CC50 in data set [3] is 0.133 µM.

On to `CCCCCCCCCCCCCCCCCCOC[C@H](COP(=O)(O)OC[C@H]1O[C@@](C#N)(c2ccc3c(N)ncnn23)[C@H](O)[C@@H]1O)n1cnc(C#N)c1` [Example 79, ((2R,3S,4R,5R)-5-(4-aminopyrrolo[2,1-f][1,2,4]triazin-7-yl)-5-cyano-3,4-dihydroxytetrahydrofuran-2-yl)methyl ((R)-2-(4-cyano-1H-imidazol-1-yl)-3-(octadecyloxy)propyl) hydrogen phosphate], for which the results for the 50% effective concentration (EC50) in data set [1] and in data set [2] were 0.103 µM and 0.33 µM, respectively. The midpoint of cytotoxicity in data set [3], the CC50, lay at 10.1 µM.

On to `CCCCCCCCCCCCCCCCCCOC[C@H](COP(=O)(O)OC[C@H]1O[C@@](C#N)(c2ccc3c(N)ncnn23)[C@H](O)[C@@H]1O)Oc1ccc(C#N)nn1` [Example 80, ((2R,3S,4R,5R)-5-(4-aminopyrrolo[2,1-f][1,2,4]triazin-7-yl)-5-cyano-3,4-dihydroxytetrahydrofuran-2-yl)methyl ((R)-2-((6-cyanopyridazin-3-yl)oxy)-3-(octadecyloxy)propyl) hydrogen phosphate], for which the EC50 in data set [1] was determined as 0.013 µM; in data set [2], 0.054 µM. Also, the CC50 in data set [3] was determined as 0.344 µM.

As to `CCCCCCCCCCCCCCCCCCOC[C@H](COP(=O)(O)OC[C@H]1O[C@@](C#N)(c2ccc3c(N)ncnn23)[C@H](O)[C@@H]1O)n1cc(C#N)nn1` [Example 81, ((2R,3S,4R,5R)-5-(4-aminopyrrolo[2,1-f][1,2,4]triazin-7-yl)-5-cyano-3,4-dihydroxytetrahydrofuran-2-yl)methyl ((R)-2-(4-cyano-1H-1,2,3-triazol-1-yl)-3-(octadecyloxy)propyl) hydrogen phosphate], the results for the EC50 in data set [1] and in data set [2] were 0.068 µM and 1.9 µM, respectively. The molecule further had a CC50 in data set [3] of 31.1 µM.

On to `CCCCCCCCCCCCCCCCCCOC[C@H](COP(=O)(O)OC[C@H]1O[C@@](C#N)(c2ccc3c(N)ncnn23)[C@H](O)[C@@H]1O)Oc1cnc(C#N)nc1` [Example 82, ((2R,3S,4R,5R)-5-(4-aminopyrrolo[2,1-f][1,2,4]triazin-7-yl)-5-cyano-3,4-dihydroxytetrahydrofuran-2-yl)methyl ((R)-2-((2-cyanopyrimidin-5-yl)oxy)-3-(octadecyloxy)propyl) hydrogen phosphate], for which the EC50 in data set [1] is 0.01 µM; in data set [2] it was 0.12 µM. This molecule also came in with a CC50 in data set [3] of 0.324 µM.

On to `CCCCCCCCCCCCCCCCCCOC[C@H](COP(=O)(O)OC[C@H]1O[C@@](C#N)(c2ccc3c(N)ncnn23)[C@H](O)[C@@H]1O)Oc1cnc(C#N)c(OC)c1` [Example 83, ((2R,3S,4R,5R)-5-(4-aminopyrrolo[2,1-f][1,2,4]triazin-7-yl)-5-cyano-3,4-dihydroxytetrahydrofuran-2-yl)methyl ((R)-2-((6-cyano-5-methoxypyridin-3-yl)oxy)-3-(octadecyloxy)propyl) hydrogen phosphate], for which the EC50 in data set [1] came out at 0.005 µM; in data set [2] it was 0.04 µM. This molecule had a CC50 in data set [3] of 0.164 µM.

Turning to `CCCCCCCCCCCCCCCCCCOC[C@H](COP(=O)(O)OC[C@H]1O[C@@](C#N)(c2ccc3c(N)ncnn23)[C@H](O)[C@@H]1O)OCc1ccc2ccccc2n1` [Example 92, ((2R,3S,4R,5R)-5-(4-aminopyrrolo[2,1-f][1,2,4]triazin-7-yl)-5-cyano-3,4-dihydroxytetrahydrofuran-2-yl)methyl ((R)-3-(octadecyloxy)-2-(quinolin-2-ylmethoxy)propyl) hydrogen phosphate], the values for the EC50 in data set [1] and in data set [2] were 0.038 µM and 0.12 µM, respectively. The molecule also showed a CC50 in data set [3] of 1.77 µM.

`CCCCCCCCCCCCCCCCCCOC[C@@H](COP(=O)(O)OC[C@H]1O[C@@](C#N)(c2ccc3c(N)ncnn23)[C@H](O)[C@@H]1O)OCc1cc(F)cc(C#N)c1` [Example 93, ((2R,3S,4R,5R)-5-(4-aminopyrrolo[2,1-f][1,2,4]triazin-7-yl)-5-cyano-3,4-dihydroxytetrahydrofuran-2-yl)methyl ((S)-2-((3-cyano-5-fluorobenzyl)oxy)-3-(octadecyloxy)propyl) hydrogen phosphate]: the EC50 is 0.079 µM in data set [1] and 0.45 µM in data set [2]. The molecule further gave a CC50 in data set [3] of 1.73 µM.

On to `CCCCCCCCCCCCCCCCCOC[C@H](COP(=O)(O)OC[C@H]1O[C@@](C#N)(c2ccc3c(N)ncnn23)[C@H](O)[C@@H]1O)OCc1ccc(C#N)c(F)c1` [Example 94, ((2R,3S,4R,5R)-5-(4-aminopyrrolo[2,1-f][1,2,4]triazin-7-yl)-5-cyano-3,4-dihydroxytetrahydrofuran-2-yl)methyl ((R)-2-((4-cyano-3-fluorobenzyl)oxy)-3-(heptadecyloxy)propyl) hydrogen phosphate], for which the EC50 in data set [1] and in data set [2] was 0.038 µM throughout. The same molecule showed a CC50 in data set [3] of 0.273 µM.

On to `CCCCCCCCCCCCCCCCOC[C@H](COP(=O)(O)OC[C@H]1O[C@@](C#N)(c2ccc3c(N)ncnn23)[C@H](O)[C@@H]1O)OCc1cccc(C#N)c1` [Example 95, ((2R,3S,4R,5R)-5-(4-aminopyrrolo[2,1-f][1,2,4]triazin-7-yl)-5-cyano-3,4-dihydroxytetrahydrofuran-2-yl)methyl ((R)-2-((3-cyanobenzyl)oxy)-3-(hexadecyloxy)propyl) hydrogen phosphate], for which the figures for the EC50 in data set [1] and in data set [2] were 0.02 µM and 0.037 µM, respectively. In data set [3], this molecule returned a CC50 of 0.252 µM.

As for `CCCCCCCCCCCCCCCCOC[C@H](COP(=O)(O)OC[C@H]1O[C@@](C#N)(c2ccc3c(N)ncnn23)[C@H](O)[C@@H]1O)OCc1ccc(C#N)cc1` [Example 96, ((2R,3S,4R,5R)-5-(4-aminopyrrolo[2,1-f][1,2,4]triazin-7-yl)-5-cyano-3,4-dihydroxytetrahydrofuran-2-yl)methyl ((R)-2-((4-cyanobenzyl)oxy)-3-(hexadecyloxy)propyl) hydrogen phosphate], the EC50 is 0.023 µM in data set [1] and 0.043 µM in data set [2]. This molecule came in with a CC50 in data set [3] of 0.511 µM.
